In one assay the target is human Aβ1-42 (Homo sapiens, UniProt P05067). The experiment in a line: DCF fluorescence assay of H2O2 production (SOD-like activity) by human Aβ1-42. Type of assay: biochemical. The note with it: P<0.001. The method, then: The three candidate peptides (15merTNP, 6merPLP and 6merMTM) were examined to determine whether they could attenuate Aβ's SOD-like activity in vitro. A DCF fluorescence assay was used to assess the efficacy of these peptides on altering the production of physiological (brain) concentrations (200 nM) of human Aβ1-42.
Sequence of human Aβ1-42 (P05067 672-713): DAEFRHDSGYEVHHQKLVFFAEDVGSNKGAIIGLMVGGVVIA
Aβ species were prepared and the assay run as described previously (i.e. Aβ1-42 at 200 nM and Copper and Dopamine concentrations remain unchanged). Peptide analogue MP2 (SEQ ID NO:2) was added to Aβ1-42+Cu solutions at ratios ranging from 0.005:1 to 10.0:1 (i.e. a ration of 0.005:1 would contain 1 nM of respective peptide). The peptide was dissolved in PBS pH7.5. The effect of MP2 on H2O2 production by human Aβ1-42 was determined in triplicate in three separate experiments (i.e. n=9) for doses ranging from 100 to 2000 nM (FIG. 1). These were compared against the level of H2O2 produced by human Aβ1-42 [test peptide analogue MP2+positive control peptide 15merTNP; three experiments done in triplicate, […]]. All data are presented as means±SEM.
For all assays run, the 15merTNP peptide (SEQ ID NO: 3), was included as a positive control for the assay and for comparing its activity with that of the modelled peptide analogue MP2. The effect of 15merTNP (200 nM) on H2O2 production by human Aβ1-42, was determined in triplicate in each of the 12 DCF assays (i.e. n=36) performed in this study.

Another assay has as its system M17 Neuroblastoma cells. The assay is described as follows: MTS cell viability assay, cell death induced by human Aβ1-42 (40 μM). Type of assay: cell-based. The method, then: M17 Neuroblastoma cells were seeded in a 48 well plate at a density of 50,000 cells per well. The plate was incubated for 24 hours at 37° C. in media (OPTI-MEM) containing 10% FCS. The next day the cells were treated with human Aβ1-42 (40 μM) in the presence or absence of the peptides 15merTNP or peptide analogue MP2 (FIG. 2). The peptides were provided at concentrations ranging from 20-400 μM prepared in Neuro basal media containing B27 supplement without antioxidants. Following incubation (4 days at 37° C.), cell viability was assessed using the CellTiter 96® AQueous One Solution cell proliferation assay (MTS; Promega, Wis., USA) as per manufactures instructions. Briefly, 200 μl of MTS reagent (1/10 dilution) was added directly to the culture wells and the plate incubated for 3 hours at 37° C. Following incubation, 150 μl of the solution was transferred to a 96 well plate and the absorbance is determined spectrophotometrically at 490 nm.
Similar to the MTT assay, the MTS assay is a colorimetric method for determining the number of viable cells in proliferation or cytotoxicity assays. The principle of the MTS assay is the same as the MTT assay, except for the tetrazolium compound that is bio-reduced by the mitochondria of the cells, forming a coloured formazan product that is soluble (rather than insoluble for the MTT assay) in tissue culture medium. This conversion is accomplished by NADPH or NADH produced by dehydrogenase enzymes in metabolically active cells: Berridge M V. And Tan A. S. (1993) Characterisation of the cellular reduction of 3-(4,5-dimethylthiazol-2-yl)-2,5-diphenyltetrazolium bromide (MTT): Subcellular localisation, substrate dependence and involvement of mitochondrial electron transport in MTT reduction. Arch. Biochem. Biophys. 303, 474-82.
The effect of human Aβ1-42 (40 μM) on cell viability was determined in triplicate in each of the 10 MTS assays (i.e. n=30) performed in this study. All data are presented as means±SEM.
The effect of peptide analogue MP2 to protect against human Aβ42-induced toxicity was then determined using the MTS assay in triplicate in two separate experiments for all doses (i.e. n=6), unless otherwise specified. The effectiveness of MP2 was compared against the 15merTNP.
On the technique in general: Tetrazolium assays rely on reduction of a dye to a coloured formazan, in cell work by metabolically active cells.

For another assay, the system named is PS/APP transgenic mice. The experiment in a line: Efficacy study: i.c.v. infusion in PS/APP transgenic mice, Aβ and GFAP immunohistochemistry. Type of assay: in vivo. To be noted: 6-month-old PS/APP mice, 28 days, vs Vehicle (PBS). The source says:
Peptide analogue MP2 [Ac-Asn-Arg-Thr-Pro-Gln-Met-Leu-Lys-Arg-NH2 (SEQ ID NO:2)] was delivered directly into the brain by i.c.v administration. For i.c.v infusion into the cerebrospinal fluid, a cannula is inserted into the right lateral ventricle of the brain (antero-posterior: −0.3 mm; medium-line: −1 mm; dorso-ventral: −2.2 mm) of 3-month and 6-month old PS/APP transgenic mice using a Kopf (Tujunga, Calif.) stereotaxic instrument (Permanne et al., 2002 “Reduction of amyloid load and cerebral damage in a transgenic mouse model of Alzheimer's disease by treatment with a β-sheet breaker peptide” FASEB J.).
The coordinates are measured from the Bregma and the surface of the skull according to the brain atlas of Franklin and Paxinos (The Mouse Brain in Stereotaxic Coordinates (1997) Academic Press, San Diego). […]
For immunohistochemistry, tissue sections are cut and series of sections processed for peroxidase immunohistochemistry with antibodies specific for beta amyloid (1-42) and astrocytic activation (GFAP). […] Reactive astrocytes (forming a halo around Aβ deposits) were detected using antibody GFAP (1:500 dilution in DAKO antibody diluent; polyclonal, DAKO); Aβ detected using affinity purified WO2 antibody (1:10,000 dilution in Tris buffer (pH 7.6); raised against amino acid residues 5-8 of human Aβ, monoclonal). […]

For “Ac-NRTPQMLKR-NH2 [MP2, Ac-Asn-Arg-Thr-Pro-Gln-Met-Leu-Lys-Arg-NH2]”, the “H2O2 levels produced by human Aβ1-42” value was “significant reduction” at human Aβ1-42 (100 and 200 nM peptide); “significantly increased” on human Aβ1-42 (peptide doses ≧1000 nM). Further, in the assay with M17 Neuroblastoma cells (Aβ1-42 40 μM), the “maximum reduction in cell toxicity associated with human Aβ1-42” value is given as “around 15%”. Moreover, the “effect on cell death associated with human Aβ1-42” value in the assay on M17 Neuroblastoma cells (peptide concentration ≧200 μM, P<0.05) was “significantly reduced cell death”; in the assay on M17 Neuroblastoma cells (peptide concentrations ≦80 μM) it was “no effect”. Further, the “reduction in the estimated total number of Aβ immunoreactive deposits” value in the assay on PS/APP transgenic mice (60 nmoles daily i.c.v.) is given as 26.4%. Also, the “total number of GFAP immunoreactive halos” value in the assay with PS/APP transgenic mice (60 nmoles/day i.c.v.) was “reduction in the total number of GFAP immunoreactive halos, although significance was only reached in the middle and posterior cortical regions”.

Source of the values: US8492341B2, “Amyloid-β binding peptides” (Alzyme Pty Ltd., priority 2006, dated 2013).
